Experimental data from patent US20250185651A1, “COMPOSITION FOR PESTICIDE PHYTOTOXICITY REDUCTION COMPRISING AMINO ACID” (CJ CheilJedang Corporation, priority 2021, published 2025).

The compounds below were run on soybeans (Glycine max) (assay: Example 1: soybean seed treatment with fluensulfone plus a single amino acid (pesticide phytotoxicity reduction)). Conditions: conclusion of Example 1; soybean seeds, 0.1% (w/v) amino acid.
Type: in vivo
Protocol: To 10 g of seeds of soybeans (scientific name: Glycine max), fluensulfone (Nimitz, ADAMA, 40% (w/v) Fluensulfone-containing product) or fluensulfone with 1 ml of 0.1% (w/v) amino acid solution were treated as a pesticide. […] The treatment groups were as Table 1 below.
After mixing the solutions of each group well, they were sufficiently mixed for about 1 minute so that the solutions were evenly applied to soybean seeds. After than, they were taken out in a sample dish and air-drying was performed until the solutions were dried.
Soybean seeds were sown, and the germination rate was measured by counting the number of germinated seeds among all the seeds in 7 days after sowing, and this was shown in FIG. 1.
In 20 days after sowing, the length of the shoots (from the ground to the growth point) was measured with a ruler and this was shown in FIG. 2, and the photographs of the shoots and roots were shown in FIG. 3 and FIG. 4.
`N[C@@H](Cc1c[nH]cn1)C(=O)O` [histidine] was tested, and the phytotoxicity by fluensulfone was “reduced”.
In the case of `CC(C)C[C@H](N)C(=O)O` [leucine], the phytotoxicity by fluensulfone is reported as “reduced”.
`N[C@@H](CCC(=O)O)C(=O)O.[Na]` [sodium glutamic acid] was tested, and the phytotoxicity by fluensulfone was “reduced”.
